Data from ChEMBL document CHEMBL1121811, “Synthesis and biological evaluation of certain 2'-deoxy-beta-D-ribo- and -beta-D-arabinofuranosyl nucleosides of purine-6-carboxamide and 4,8-diaminopyrimido[5,4-d]pyrimidine” (1981).

Legend:
Mus musculus [1] = experiment: Compound was tested for the ability to suppress humoral immune response in mice treated for days 0,+1,and +2 at dose of 100 mg/kg (control = 10.0)
Mus musculus [2] = experiment: Effect of compound on induction of cellular immunity was studied at different dose of 50 mg/kg. (control = 12+/-0.21); format: functional
Mus musculus [3] = experiment: Compound was tested for the ability to suppress humoral immune response in mice treated for days -2,-1,and 0 at dose of 100 mg/kg (control = 9.5); format: functional
Mus musculus [4] = experiment: Compound was tested for the ability to suppress skin-graft rejection in mice treated daily from day of graft transfer until rejection at dose of 100 mg/kg (control = 12+/-0.21)
Mus musculus [5] = experiment: Compound was tested for the ability to suppress skin-graft rejection in mice treated daily from day of graft transfer until rejection at dose of 75 mg/kg (control = 12+/-0.21)
Mus musculus [6] = experiment: Effect of compound on induction of cellular immunity was studied at different dose of 15 mg/kg (control = 12+/-0.2); format: functional
Mus musculus [7] = experiment: Compound was tested for the ability to suppress humoral immune response in mice treated for days -2,-1,and 0 at dose of 25 mg/kg (control = 9.5); format: functional
Mus musculus [8] = experiment: Compound was tested for the ability to suppress humoral immune response in mice treated for days 0,+1,and +2 at dose of 25 mg/kg (control = 7.0); format: functional
Mus musculus [9] = experiment: Compound was tested for the ability to suppress humoral immune response in mice treated for days 0,+1,and +2 at dose of 100 mg/kg (control = 8.9); format: functional
Mus musculus [10] = experiment: Compound was tested for the ability to suppress humoral immune response in mice treated for days -2,-1,and 0 at dose of 100 mg/kg (control = 8.1); format: functional
Mus musculus [11] = experiment: Compound was tested for the ability to suppress humoral immune response in mice treated for days 0,+1,and +2 at dose of 25 mg/kg (control = 8.9)
Mus musculus [12] = experiment: Compound was tested for the ability to suppress humoral immune response in mice treated for days 0,+1,and +2 at dose of 50 mg/kg (control = 8.9); format: functional
Mus musculus [13] = experiment: Compound was tested for the ability to suppress humoral immune response in mice treated for days -2,-1,and 0 at dose of 50 mg/kg (control = 8.1); format: functional
Mus musculus [14] = experiment: Compound was tested for the ability to suppress humoral immune response in mice treated for days -2,-1,and 0 at dose of 50 mg/kg (control = 10.3); format: functional
Mus musculus [15] = experiment: Compound was tested for the ability to suppress humoral immune response in mice treated for days 0,+1,and +2 at dose of 100 mg/kg (control = 9.0); format: functional
Mus musculus [16] = experiment: Compound was tested for the ability to suppress humoral immune response in mice treated for days 0,+1,and +2 at dose of 100 mg/kg (control = 6.5); format: functional
Mus musculus [17] = experiment: Compound was tested for the ability to suppress humoral immune response in mice treated for days 0,+1,and +2 at dose of 180 mg/kg (control = 9.0); format: functional
Mus musculus [18] = experiment: Compound was tested for the ability to suppress humoral immune response in mice treated for days 0,+1,and +2 at dose of 180 mg/kg (control = 9.1); format: functional
Mus musculus [19] = experiment: Compound was tested for the ability to suppress humoral immune response in mice treated for days 0,+1,and +2 at dose of 50 mg/kg (control = 6.5); format: functional
Mus musculus [20] = experiment: Compound was tested for the ability to suppress humoral immune response in mice treated for days -2,-1,and 0 at dose of 100 mg/kg (control = 10.3); format: functional
Mus musculus [21] = experiment: Compound was tested for the ability to suppress humoral immune response in mice treated for days 0,+1,and +2 at dose of 50 mg/kg (control = 9.0); format: functional

Structure (SMILES): Nc1ncnc2c(N[C@@H]3O[C@H](CO)[C@@H](O)[C@@H]3O)ncnc12
- Mean hemagglutination titers (Mus musculus [1]): 11
- mean survival time (Mus musculus [2]): 14
- Mean hemagglutination titers (Mus musculus [3]): 8.7
- mean survival time (Mus musculus [4]): 16
- mean survival time (Mus musculus [5]): 13

Structure (SMILES): Nc1ncnc2c(N[C@@H]3O[C@H](CO)[C@@H](O)[C@H]3O)ncnc12
- mean survival time (Mus musculus [6]): 21
- Mean hemagglutination titers (Mus musculus [7]): 8.5
- Mean hemagglutination titers (Mus musculus [8]): 0

Structure (SMILES): Nc1ccn([C@@H]2O[C@H](CO)[C@@H](O)[C@@H]2O)c(=O)n1 [CYTARABINE]
- Mean hemagglutination titers (Mus musculus [8]): 3.4

Structure (SMILES): Sc1ncnc2nc[nH]c12 [MERCAPTOPURINE ANHYDROUS]
- Mean hemagglutination titers (Mus musculus [9]): 4.1
- Mean hemagglutination titers (Mus musculus [10]): 3.4
- Mean hemagglutination titers (Mus musculus [11]): 7.5
- Mean hemagglutination titers (Mus musculus [12]): 7.2
- Mean hemagglutination titers (Mus musculus [13]): 7.5

Structure (SMILES): OC[C@H]1O[C@@H](n2cnc3c(S)ncnc32)[C@H](O)[C@@H]1O [THIOINOSINE]
- Mean hemagglutination titers (Mus musculus [14]): 8.3
- Mean hemagglutination titers (Mus musculus [15]): 7.4
- Mean hemagglutination titers (Mus musculus [16]): 7.2
- Mean hemagglutination titers (Mus musculus [17]): 6.4
- Mean hemagglutination titers (Mus musculus [18]): 8.7
- Mean hemagglutination titers (Mus musculus [10]): 8.4
- Mean hemagglutination titers (Mus musculus [19]): 7.2
- Mean hemagglutination titers (Mus musculus [20]): 8.3
- Mean hemagglutination titers (Mus musculus [21]): 9.1
- Mean hemagglutination titers (Mus musculus [13]): 8.5
